Data: patent US20120060243A1, “Herbicide-Resistant AHAS-Mutants and Methods of Use” (priority 2008, published 2012)

Legend:
Assay type in all cases: in vivo, Brassica napus
[1] = tested on: PM2 (AHAS III W574L single mutant); test: Plant injury after herbicide spray, Table 3; conditions: 3-4 leaf stage, 2 weeks after treatment, line PM2
Protocol: (§1) B. napus plants containing the double mutant were also tested for plant injury due to imidazolinone herbicide application. B. napus plants for lines BN02 (wild type), BnCL131A1 (AHAS III A122T:S653N double mutant), BnCL120C7 (AHAS III A122T single mutant), BnCL97 (AHAS III S653N single mutant), PM1/PM2 (commercial two gene check), PM1 (AHAS I S653N single mutant) and PM2 (AHAS III W574L single mutant) were grown from seed until 3-4 leaf stage then either left unsprayed or sprayed with 35, 70 or 210 g ai/ha imazamox supplemented with 0.5% v/v Merge. Herbicide injury was evaluated 2 weeks after treatment (DAT) on 8-24 plants per line using a 0 to 9 scale where 0 is no injury and 9 is plant death. The results are presented as mean injury±one standard error of the mean in Table 3 below. The results presented cover two independent plantings and sprays for all lines except BnCL97. The table also presents values for ±one standard error of the mean.

[2] = tested on: PM1 (AHAS I S653N single mutant); test: Plant injury after herbicide spray, Table 3; conditions: 3-4 leaf stage, 2 weeks after treatment, line PM1
Protocol: as §1

[3] = tested on: PM1/PM2 (commercial two gene check); test: Plant injury after herbicide spray, Table 3; conditions: 3-4 leaf stage, 2 weeks after treatment, line PM1/PM2
Protocol: as §1

[4] = tested on: BN-02 (wild type); test: Plant injury after herbicide spray, Table 3; conditions: 3-4 leaf stage, 2 weeks after treatment, line BN-02
Protocol: as §1

[5] = tested on: BnCL131A1 (AHAS III A122T:S653N double mutant); test: Plant injury after herbicide spray, Table 3; conditions: 3-4 leaf stage, 2 weeks after treatment, line BnCL131A1
Protocol: as §1

[6] = tested on: BnCL120C7 (AHAS III A122T single mutant); test: Plant injury after herbicide spray, Table 3; conditions: 3-4 leaf stage, 2 weeks after treatment, line BnCL120C7
Protocol: as §1

[7] = tested on: BnCL97 (AHAS III S653N single mutant); test: Plant injury after herbicide spray, Table 3; conditions: 3-4 leaf stage, 2 weeks after treatment, line BnCL97
Protocol: as §1

[8] = tested on: BnCL97 (BN-02) (AHASIII S653N); test: Field test herbicide injury, Minot; conditions: 200 g ai/ha, 15 days after treatment, S653N single mutant BnCL97 (BN-02)
From the text: (§2) B. napus plants from the following spring oilseed rape lines: BN-02 (wild type), BN-T (wild type), BnCL131A1 in a BN-02 background genotype (AHAS III A122T S653N double mutant), BnCL120C7 in a BN-02 background genotype (BnAHASIII A122T), BnCL97 in a BN-02 background genotype (BnAHASIII S653N), PM1/PM2 in a BN-T background (two gene check: AHAS I S653N & AHAS III W574L), PM1 in a BN-T background (one gene check: AHAS I S653N) and PM2 in a BN-T background (one gene check: AHAS III W574L) were field tested at a site near Minot, N. Dak. Lines were planted in 5 m long single row plots and arranged in a two factorial split plot design with 3 repetitions and 4 treatments (0 g ai/ha imazamox, 50 g ai/ha imazamox, 100 g ai/ha imazamox and 200 g ai/ha imazamox). Plants were sprayed at the 2-4 leaf stage with the above mentioned imazamox treatments. The imazamox product (Beyond 120 g/L LC+0.25% (v/v) non-ionic surfactant) was diluted in 20 gallons per acre (or 200 liters/ha) and applied using a tractor mounted boom.
(§3) Herbicide injury was evaluated 15 days after treatment (DAT) on a per plot basis using a scale from 0 to 100%, where 0 was no injury and 100% was complete plant death.

[9] = tested on: BNCL120C7 (BN-02) (AHASIII A122T); test: Field test herbicide injury, Minot; conditions: 200 g ai/ha, 15 days after treatment, A122T single mutant BNCL120C7 (BN-02)
From the text: as §2, §3

[10] = tested on: BnCL131A1 (BN-02) (AHAS III A122T, S653N); test: Field test herbicide injury, Minot; conditions: 200 g ai/ha
From the text: as §2, §3

SMILES: COCc1cnc(C2=NC(C)(C(C)C)C(=O)N2)c(C(=O)O)c1 (stereo not shown) [imazamox]
- Herbicide injury, mean ± one standard error of the mean, 0 to 9 scale (0 no injury, 9 plant death) ([1]; 35 g ai/ha + 0.5% v/v Merge): 1.81 ± 0.25
- Herbicide injury, mean ± one standard error of the mean, 0 to 9 scale (0 no injury, 9 plant death) ([1]; 70 g ai/ha + 0.5% v/v Merge): 4.14 ± 0.23
- Herbicide injury, mean ± one standard error of the mean, 0 to 9 scale (0 no injury, 9 plant death) ([1]; 210 g ai/ha + 0.5% v/v Merge): 6.17 ± 0.22
- Herbicide injury, mean ± one standard error of the mean, 0 to 9 scale (0 no injury, 9 plant death) ([2]; 35 g ai/ha + 0.5% v/v Merge): 7.22 ± 0.18
- Herbicide injury, mean ± one standard error of the mean, 0 to 9 scale (0 no injury, 9 plant death) ([2]; 70 g ai/ha + 0.5% v/v Merge): 8.61 ± 0.12
- Herbicide injury, mean ± one standard error of the mean, 0 to 9 scale (0 no injury, 9 plant death) ([2]; 210 g ai/ha + 0.5% v/v Merge): 9.00 ± 0.00
- Herbicide injury, mean ± one standard error of the mean, 0 to 9 scale (0 no injury, 9 plant death) ([3]; 35 g ai/ha + 0.5% v/v Merge): 1.21 ± 0.33
- Herbicide injury, mean ± one standard error of the mean, 0 to 9 scale (0 no injury, 9 plant death) ([3]; 70 g ai/ha + 0.5% v/v Merge): 4.13 ± 0.36
- Herbicide injury, mean ± one standard error of the mean, 0 to 9 scale (0 no injury, 9 plant death) ([3]; 210 g ai/ha + 0.5% v/v Merge): 4.93 ± 0.53
- Herbicide injury, mean ± one standard error of the mean, 0 to 9 scale (0 no injury, 9 plant death) ([4]; 35 g ai/ha + 0.5% v/v Merge): 9.00 ± 0.00
- Herbicide injury, mean ± one standard error of the mean, 0 to 9 scale (0 no injury, 9 plant death) ([4]; 70 g ai/ha + 0.5% v/v Merge): 9.00 ± 0.00
- Herbicide injury, mean ± one standard error of the mean, 0 to 9 scale (0 no injury, 9 plant death) ([4]; 210 g ai/ha + 0.5% v/v Merge): 9.00 ± 0.00
- Herbicide injury, mean ± one standard error of the mean, 0 to 9 scale (0 no injury, 9 plant death) ([5]; 35 g ai/ha + 0.5% v/v Merge): 0.76 ± 0.33
- Herbicide injury, mean ± one standard error of the mean, 0 to 9 scale (0 no injury, 9 plant death) ([5]; 70 g ai/ha + 0.5% v/v Merge): 2.53 ± 0.24
- Herbicide injury, mean ± one standard error of the mean, 0 to 9 scale (0 no injury, 9 plant death) ([5]; 210 g ai/ha + 0.5% v/v Merge): 3.22 ± 0.33
- Herbicide injury, mean ± one standard error of the mean, 0 to 9 scale (0 no injury, 9 plant death) ([6]; 35 g ai/ha + 0.5% v/v Merge): 4.19 ± 0.39
- Herbicide injury, mean ± one standard error of the mean, 0 to 9 scale (0 no injury, 9 plant death) ([6]; 70 g ai/ha + 0.5% v/v Merge): 5.43 ± 0.24
- Herbicide injury, mean ± one standard error of the mean, 0 to 9 scale (0 no injury, 9 plant death) ([6]; 210 g ai/ha + 0.5% v/v Merge): 6.65 ± 0.30
- Herbicide injury, mean ± one standard error of the mean, 0 to 9 scale (0 no injury, 9 plant death) ([7]; 35 g ai/ha + 0.5% v/v Merge): 4.08 ± 0.15
- Herbicide injury, mean ± one standard error of the mean, 0 to 9 scale (0 no injury, 9 plant death) ([7]; 70 g ai/ha + 0.5% v/v Merge): 8.58 ± 0.15
- Herbicide injury, mean ± one standard error of the mean, 0 to 9 scale (0 no injury, 9 plant death) ([7]; 210 g ai/ha + 0.5% v/v Merge): 8.00 ± 0.23
- amount of tolerance (100% minus crop injury) [8]: 17%
- amount of tolerance (100% minus crop injury) [9]: 20%
- amount of tolerance (100% minus crop injury) ([10]; field, 15 days after treatment, double mutant line BnCL131A1 (BN-02)): 62%
- expected tolerance if additive (A122T plus S653N) ([10]; sum of tolerances of the two single mutant lines): 37%
